Results: patent US20070249988A1, “Electrotransport Delivery of Nesiritide” (ALZA CORPORATION, priority 2006, published 2007)

Assays:
[1] = In vitro electrotransport of nesiritide across heat-separated human epidermis (ET cells, solution donor); assay type: in vitro ADME
Procedure: Nesiritide was screened in vitro for its electrotransport (ET) properties with heat-separated human epidermis/stratum corneum (skin).
In vitro electrotransport of nesiritide across heat-separated human epidermis/stratum corneum was conducted using anodic drive with ET cells in three separate sets of experiments, using human epidermis from three sources under the conditions set forth in the table below.
The pH of donor solutions was monitored before and after the experiments. The amount of passive transport was determined in fully assembled ET cells, incubated at 32° C. for 1 hour, with subsequent analysis of the receptor solution by RP-HPLC. […] The applied constant current was 100 μA/cm^2. The receptor solution was removed for analysis and replenished at 2 hour intervals during the first eight hours of testing, and then after 24 hours and 26 hours. The voltage drop across each cell was monitored at intervals throughout the experiment. Additionally, after the completion of transport studies, the solutions from some donor compartments were removed and analyzed either for evidence of peptide degradation or for pH changes.
When comparing data obtained using different conditions during ET Flux, it is thought to be more useful to compare the median values for each case (Holladay, L. A. 1995; personal communications). The use of the median as a figure of merit for ET flux data decreases the impact of both measurement and recovery problems for cells with low transport values. It also minimizes the impact of data from ECs with higher values, which may represent skin that was partially leaking. In order to compare the values of the median from different studies, it is necessary to have an estimate of the confidence interval for each median. If the values for the medians are different, but the confidence intervals overlap, then the results are not truly distinguished. For this work with nesiritide, a Bootstrap method (Diciccio, T. J., Romano, J. P. A Review of Bootstrap Confidence Intervals, J. R. Statist Soc B, 1988; 50 338-354; Efron, B., Tibshirani, R. Bootstrap Methods for Standard errors, Confidence Intervals, and Other Measures of Statistical Accuracy, Statistical Science, 1986; 1 54-77) was used to determine 95% and 67% confidence intervals for the data sets compared. The method estimates the intervals using considerable amounts of computation; 32,000 trials of the algorithm were used for these analyses.

[2] = In use stability of hydrogel formulations under electrotransport conditions (HPLC); assay type: physicochemical; conditions: hydrogel formulation, over 24 hours, at 0.1 mA/cm^2 and 32° C.
Procedure: In vitro electrotransport flux experiments were conducted using either synthetic polymeric Nulepore membranes or heat separated human cadaver epidermis. Custom-built horizontal diffusion cells were used for all in vitro skin flux experiments. Silver and silver chloride electrodes were used to apply current across the cell. Nesiritide hydrogels were placed between the silver anode and human heat-separated epidermis. In addition, a PVOH hydrogel containing a polymeric chloride source was placed between the silver anode and the drug hydrogel. A 1/10 dilution of Dulbecco's phosphate buffered saline (0.015 M NaCl) served as the receptor solution, which was continuously pumped through the receptor compartment. At multiple time points, receptor samples for HPLC analysis were collected using a custom-built, automated Hanson Research Microette™ collection system.
The receptor samples were analyzed for nesiritide using a HPLC assay. In addition, as show in FIGS. 6B and 7B, formulations were also extracted for nesiritide and analyzed via a HPLC assay after use in a flux experiment.

[3] = Stability on exposure to human epidermis; assay type: in vitro ADME
Procedure: The peptide was incubated in various buffer systems, both with and without human epidermis, at concentrations to be used for donor solutions. Experiments were conducted at 32° C. for 8 hours and 24 hours. The solutions were separated into portions and analyzed by RP-HPLC using the conditions described in the table below, both directly and after dilution to give a concentration of nesiritide at ˜100 μg/mL. In some cases, donor solutions were also removed and analyzed following ET Flux experiments.

[4] = 8 hour delivery, study a & c, fresh skin, combine 1 mM & 3 mM, 100 μA/cm^2
[5] = 8 hour delivery, study a & c, fresh skin, donor 1 mM, 100 μA/cm^2
[6] = 8 hour delivery, study b, frozen skin, donor 1 mM, 100 μA/cm^2
[7] = 8 hour delivery, study b, frozen skin, donor 3 mM, 100 μA/cm^2
[8] = 8 hour delivery, study c, fresh skin, donor 3 mM, 100 μA/cm^2

CC[C@H](C)[C@@H]1NC(=O)[C@H](CCCNC(=N)N)NC(=O)[C@H](CC(=O)O)NC(=O)[C@H](CCSC)NC(=O)[C@H](CCCCN)NC(=O)[C@H](CCCNC(=N)N)NC(=O)CNC(=O)[C@H](Cc2ccccc2)NC(=O)[C@@H](NC(=O)CNC(=O)[C@H](CO)NC(=O)CNC(=O)[C@H](CCC(N)=O)NC(=O)[C@@H](NC(=O)[C@H](CCSC)NC(=O)[C@H](CCCCN)NC(=O)[C@@H]2CCCN2C(=O)[C@@H](N)CO)C(C)C)CSSC[C@@H](C(=O)N[C@@H](CCCCN)C(=O)N[C@H](C(=O)N[C@@H](CC(C)C)C(=O)N[C@@H](CCCNC(=N)N)C(=O)N[C@@H](CCCNC(=N)N)C(=O)N[C@@H](Cc2c[nH]cn2)C(=O)O)C(C)C)NC(=O)CNC(=O)[C@H](CC(C)C)NC(=O)CNC(=O)[C@H](CO)NC(=O)[C@H](CO)NC(=O)[C@H](CO)NC(=O)[C@H](CO)NC1=O [Nesiritide, nesiritide]
comprehensive median value for transport through human skin ([1]; 1 mM and 3 mM donor combined, 95% confidence interval of 1.2-2.1): 1.6 μg cm^−2h^−1 | Mean electrotransport flux ([1]; 1 mM and 3 mM, study a & c, sampling up to 8 h, fresh skin): 4.7 μg cm^−2 h^−1 | Mean electrotransport flux ([1]; 1 mM and 3 mM, study b, sampling 8 h–26 h, frozen skin): 1.5 μg cm^−2 h^−1 | Mean electrotransport flux ([1]; 1 mM and 3 mM, study b, sampling up to 8 h, frozen skin): 18.6 μg cm^−2 h^−1 | Mean electrotransport flux ([1]; 1 mM and 3 mM, study c, sampling 8 h–26 h, fresh skin): 1.3 μg cm^−2 h^−1 | Mean electrotransport flux [1, 4]: 4.7 μg cm^−2 h^−1 | Median electrotransport flux [1, 4]: 1.6 μg cm^−2 h^−1 | Mean electrotransport flux [1, 5]: 3.0 μg cm^−2 h^−1 | Median electrotransport flux [1, 5]: 1.6 μg cm^−2 h^−1 | Mean electrotransport flux [1, 6]: 10.7 μg cm^−2 h^−1 | Median electrotransport flux [1, 6]: 6.3 μg cm^−2 h^−1 | Mean electrotransport flux [1, 7]: 24.9 μg cm^−2 h^−1 | Median electrotransport flux [1, 7]: 5.6 μg cm^−2 h^−1 | Mean electrotransport flux [1, 8]: 8.2 μg cm^−2 h^−1 | Median electrotransport flux [1, 8]: 2.0 μg cm^−2 h^−1 | transport with respect to time ([1]; by 24 hours (FIG. 2)): approaches zero transport | median values for transport, donor 1 mM versus 3 mM ([1]; comparison of donor 1 mM and 3 mM (FIG. 3)): not significantly different | Median Transport ([1]; fresh skin, Mid-time 0): 0 μg cm^−2 h^−1 | Median Transport ([1]; fresh skin, Mid-time 0.6): 4.00 μg cm^−2 h^−1 | Median Transport ([1]; fresh skin, Mid-time 2.2): 2.01 μg cm^−2 h^−1 | Median Transport ([1]; fresh skin, Mid-time 4.2): 1.55 μg cm^−2 h^−1 | Median Transport ([1]; fresh skin, Mid-time 6.2): 1.06 μg cm^−2 h^−1 | Median Transport ([1]; fresh skin, Mid-time 16): 0.37 μg cm^−2 h^−1 | Median Transport ([1]; fresh skin, Mid-time 25): 0.80 μg cm^−2 h^−1 | in use stability under electrotransport conditions [2]: sufficient stability | resistance to destruction ([3]; following exposure to human epidermis): quite resistant to destruction | stability with added human skin ([3]; pH 7, 24-hour, 32° C., with added human skin): no destruction
